Assays:
human islet cells = assay: Caspase-Glo 3/7 assay in palmitic acid-treated human islets; assay type: cell-based; parameters: rescuing human islet cells from apoptosis, compared with L-798106 / inhibiting or reversing palmitate-induced apoptosis in pancreatic islets of both human donors / inhibition of palmitate-induced apoptosis in human islets, donor 1: dose or concentration left out as unconfirmed; details: for rescuing human islet cells from apoptosis, compared with L-798106: two human donors
Procedure: (§1) Islet and cell culture: The pancreatic β-cell line MIN6, which is a clonal murine insulin-secreting line, was cultured in DMEM (Biological Industries, Beit Haemek, Israel) supplemented with 11 mM Glucose, 2 mM glutamine, 15% heat-inactivated fetal calf serum (FCS), 100 U/ml penicillin, 100 µg/ml streptomycin and 61 μM β-mercaptoethanol. Human islets were obtained from the European Consortium for Islet Transplantation (ECIT) at the San Raffaele Hospital and from the Niguarda Hospital, (Milan, Italy) and cultured in CMRL-1066 media (Biological Industries, Beit HaEmek, Israel) supplemented with 10% FCS, 5.5 mM glucose, 2 mM L-Glutamine, 100 U/ml penicillin, 100 μg/ml streptomycin and 150 μg/ml gentamycin. Palmitate was added to 1% FCS and 0.5% defatted BSA (Roche, Germany).
(§2) Next, the ability of the compounds to rescue human islet cells from palmitate-induced apoptosis was determined. To this end, the Caspase-Glo 3/7 assay reagent (Promega) was used for caspase 3/7 detection in palmitic acid-treated cells. The reagent provides a proluminescent caspase-3/7 substrate, which contains the tetrapeptide sequence DEVD, in combination with luciferase and a cell-lysing agent. The addition of the reagent directly to the wells results in cell lysis, followed by caspase cleavage of the DEVD substrate, and the generation of luminescence.
Accordingly, human islets from two donors were exposed to the various compounds or to L-798106 for 48 h in the presence of palmitic acid, and the bioluminescence was measured as compared to control cells. FIGS. 3A-3B show the results of the treatment with […] of the compounds in two human donors (FIG. 3A—donor 1, FIG. 3B—donor 2). PA: Palmitate; L: L-798106; RLU: Relative Light Units. The results are average of triplicates or quadruplicates ±SEM (except in islets from L-798106 treated donor 2, representing duplicates).
Next, various concentrations of the compounds were tested in human pancreatic islet cells. Cells obtained from the first healthy donor (donor 1) were incubated in the presence or absence of PA with C13, C5 or L-798106 (L) at concentrations of 5, 2.5 and 0.5 μM. Caspase 3/7 enzymatic activity was measured as described above. The enzymatic activity is presented in FIG. 5A for 5 μM, FIG. 5B for 2.5 μM and FIG. 5C for 0.5 μM as relative light units (RLU/μg protein) and the graphs represent the average of n=3-4.

MIN6 cells [1] = assay: rescue of MIN6 cells from palmitate-induced apoptosis (cleaved caspase 3 western blot; FACS SubG1); assay type: cell-based, murine; details: palmitic acid 0.3 mM, 48 hours; compared to L-798106
Procedure: as §1
Western blotting: Cells were lyzed in Laemmli protein sample buffer, separated on SDS-polyacrylamide gel, and transferred to […] nitrocellulose membranes (Schleicher and Schuell, Dassel, Germany). After blocking in 5% dried skimmed milk, the membranes were first incubated with the appropriate antibodies against: cleaved caspase-3 (Asp175) (Cell Signaling Technology Danvers, MA) and α-tubulin (Sigma-Aldrich.) and then with horseradish peroxidase conjugated anti-rabbit or anti-mouse IgG, followed by analysis with an enhanced chemiluminescence detection kit (Biological Industries, Israel).
The remaining compounds were screened for the ability to rescue β-cells from palmitate-induced apoptosis as compared to the commercial EP3 antagonist L-798106 by measuring the levels of the cleaved caspase 3 apoptotic marker, using Western Blot analysis (FIG. 1). […] Cell extracts were analyzed by western blotting for the presence of cleaved caspase 3 as compared to α-Tubulin.
The ability of the compounds to rescue β-cells from apoptosis was also evaluated using FACS analysis and measuring the SubG1 population (FIG. 2). […] Collected cells were analyzed by FACS and the SubG1 fractions (representing apoptotic cell products or components were compared. The average of 4-6 independent experiments is presented in FIG. 2.

MIN6 cells [2] = assay: Caspase 3/7 enzymatic activity in palmitic acid-treated MIN6 cells; assay type: cell-based, murine; details: 250 nM, 24 h
Procedure: as §2
Following the initial screening results, compounds C13 and C5 were tested at different doses for their ability to reduce palmitate-induced apoptosis. To this end, MIN6 cells were exposed to 250 nM of the tested compounds in the presence of palmitic acid (PA) for 24 h, or to PA alone. Caspase 3/7 enzymatic activity was measured as described in Example 3, and the results, presented in FIG. 4 represent the average ±SEM of triplicates or quadruplicates.

INS1 and INS2 genes = assay: insulin gene expression in palmitate-treated MIN6 cells (real-time PCR); assay type: cell-based, murine; details: 10 μM, in the presence of palmitate
Procedure: Real-time PCR: Total RNA from MIN6 cells or islets was extracted using TRIzol (Invitrogen, Carlsbad, CA, USA) and 2 μg of total RNA was converted to cDNA using SuperScript® III Reverse Transcriptase (Invitrogen, Carlsbad, CA, USA). 2.5-5 ng cDNA was used for each real-time PCR reaction. Real-time reaction was performed using Platinum SYBR Green qPCR SuperMix-UDG with ROX reference dye (Applied Biosystems). The primers used were as follows: GAPDH forward (F): […]; GAPDH reverse (R): […]; Ins1 (F): AACCCCCAGCCCTTAGTGA; (R): […]; Ins2 (F): […]; (R): […] (SEQ ID Nos: 1-6, respectively). Additional primers used as controls are directed to HPRT, as follows: HPRT (F): […] HPRT (R) […] (SEQ ID Nos: 7-8, respectively).
PA decreases the expression of β-cell specific genes, including insulin. The effect of the selected compounds on insulin gene expression was further tested in MIN6 cells. Rodent β-cells have two insulin genes (INS1 and INS2). MIN6 cells were exposed to C5 or L-798106 (10 μM) in the presence or absence of palmitic acid, and mRNAs insulin levels were measured by real-time PCR. FIGS. 6A-6B present the expression levels of INS1 and INS2 genes, respectively, normalized to GAPDH expression levels. Data of n=3±SEM is presented.

Row | SMILES | inhibition of palmitate-induced apoptosis in human islets, compared with L-798106 (human islet cells; donor 1, 5, 2.5 and 0.5 μM) | rescuing human islet cells from apoptosis, compared with L-798106 (human islet cells; palmitic acid, 48 h) | rescue of β-cells from palmitate-induced apoptosis (cleaved caspase 3; SubG1 population) (MIN6 cells [1]) | palmitate-induced apoptosis (caspase 3/7 activity) (MIN6 cells [2]) | effect on insulin gene expression relative to L-798106 (INS1 and INS2 genes) | insulin gene expression (INS1, INS2) normalized to GAPDH (INS1 and INS2 genes) | efficacy at all tested concentrations (human islet cells; donor 1, 5, 2.5 and 0.5 μM) | inhibiting or reversing palmitate-induced apoptosis in pancreatic islets of both human donors (human islet cells; palmitic acid, 48 h)
1 | CC[C@H](C)c1ccc(S(=O)(=O)Nc2ccccc2C(=O)N2C[C@@H](C)O[C@@H](C)C2)cc1 [Compound C5, 4-((S)-sec-butyl)-N-(2-((2S,6R)-2,6-dimethylmorpholine-4-carbonyl)phenyl)benzenesulfonamide] | to a greater extent than L-798106 | to a greater extent than the EP3 antagonist L-798106 | exceptionally high efficacy | significantly reduced | appeared to be more significant | enhanced insulin gene expression | – | –
2 | CC[C@@H]1CC[C@H](C)N1C(=O)c1cccc(NS(=O)(=O)c2ccc(C)c(F)c2)c1 [Compound C13, N-(3-((2R,5S)-2-ethyl-5-methylpyrrolidine-1-carbonyl)phenyl)-3-fluoro-4-methylbenzenesulfonamide] | to a greater extent than L-798106 | to a greater extent than the EP3 antagonist L-798106 | exceptionally high efficacy | significantly reduced | – | – | remarkable efficacy | particularly high efficacy
3 | COc1ccc(Br)cc1S(=O)(=O)NC(=O)/C=C/c1ccccc1Cc1ccc2ccccc2c1 [Compound L-798106, (2E)-N-[(5-bromo-2-methoxyphenyl)sulfonyl]-3-[2-(2-naphthalenylmethyl)phenyl]-2-propenamide, reference compound] | – | – | – | – | – | enhanced insulin gene expression | – | –

From patent US20240261296A1, “THERAPEUTIC MODALITIES FOR INHIBITING PANCREATIC BETA CELL IMPAIRMENT AND TREATING DIABETES” (Hadasit Medical Research Serices & Development Ltd., priority 2021, published 2024)
